{
  "source": "patent US12240862B2",
  "about": "“Inhibitors of peptidylarginine deiminases” (Gilead Sciences, Inc., priority 2020, dated 2025)",
  "data": [
    {"test_system": "murine CIA model", "assay": "not given", "details": "prophylactic treatment; cited from earlier work", "values": [
      {"molecule": "NC(=O)[C@H](CCCN=C(N)CCl)NC(=O)c1ccccc1", "note": "[chloroamidine]", "clinical and histological scores": "improvement of clinical and histological scores"},
      {"molecule": "GSK199", "clinical and histological scores": "improvement of clinical and histological scores"}
    ]},
    {"target": "T1, human PAD4 (Homo sapiens, UniProt Q9UM07)", "T1 construct": "human PAD4 (NM_012387), A2P663, was PCR amplified; His-SUMO (N, cleaved yes); made in house; host or cells: E. coli BL21(DE3)", "T1 sequence (Q9UM07 2-663)": "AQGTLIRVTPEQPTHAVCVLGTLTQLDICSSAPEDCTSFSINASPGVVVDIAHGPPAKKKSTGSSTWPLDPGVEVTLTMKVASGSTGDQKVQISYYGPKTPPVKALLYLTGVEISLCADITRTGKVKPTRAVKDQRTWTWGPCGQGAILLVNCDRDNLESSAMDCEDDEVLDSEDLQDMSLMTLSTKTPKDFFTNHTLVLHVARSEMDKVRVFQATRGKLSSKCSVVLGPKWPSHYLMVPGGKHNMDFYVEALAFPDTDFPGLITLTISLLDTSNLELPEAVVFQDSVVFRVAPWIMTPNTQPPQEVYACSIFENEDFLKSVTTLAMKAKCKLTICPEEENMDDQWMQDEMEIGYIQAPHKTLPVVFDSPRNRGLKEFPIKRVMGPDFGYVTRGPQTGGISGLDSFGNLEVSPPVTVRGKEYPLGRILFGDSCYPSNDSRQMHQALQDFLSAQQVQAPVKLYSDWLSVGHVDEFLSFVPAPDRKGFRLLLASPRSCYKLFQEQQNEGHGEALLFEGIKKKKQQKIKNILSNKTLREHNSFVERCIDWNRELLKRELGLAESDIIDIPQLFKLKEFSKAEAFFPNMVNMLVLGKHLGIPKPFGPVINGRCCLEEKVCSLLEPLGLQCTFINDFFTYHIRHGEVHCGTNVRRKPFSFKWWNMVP", "assay": "In vitro PAD4 BAEE biochemical assay", "details": "human PAD4, BAEE substrate; 5 nM PAD4, 2 mM calcium chloride, 3 mM BAEE; geometric mean of multiple experiments", "how_it_was_run": "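Ammonia generated from BAEE serves as the readout, measured by o-phthalaldehyde after EDTA termination. Final conditions: 5 nM human PAD4 (SUMO tag cleaved), 2 mM CaCl2, 3 mM BAEE, pH 7.6 MOPS buffer, 25 °C for 2 h following a 30-min compound preincubation.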", "units": {"IC50": "nM"}, "values": [
      {"molecule": "COc1cc(C(=O)N2C[C@H](N)CCN2C)cc2nc(-c3cc4ccc([C@@H](C)NC(=O)C56CC(F)(C5)C6)nc4n3CC3CC3)c(C)n12", "note": "[Example 615, N—((R)-1-(2-(7-((R)-5-amino-2-methylhexahydropyridazine-1-carbonyl)-5-methoxy-3-methylimidazo[1,2-a]pyridin-2-yl)-1-(cyclopropylmethyl)-1H-pyrrolo[2,3-b]pyridin-6-yl)ethyl)-3-fluorobicyclo[1.1.1]pentane-1-carboxamide]", "IC50": 69.6},
      {"molecule": "COc1cc(C(=O)N2CCC[C@@H](N)C2)cc2nc(-c3cc4ccc(O[C@@H](C)C(=O)N(C)C)nc4n3CC3CC3)c(C)n12", "note": "[Example 617, (2~{S})-2-[2-[7-[(3~{R})-3-aminopiperidine-1-carbonyl]-5-methoxy-3-methylimidazo[1,2-a]pyridin-2-yl]-1-(cyclopropylmethyl)pyrrolo [2,3-b]pyridin-6-yl]oxy-~{N},~{N}-dimethylpropanamide]", "IC50": 6980},
      {"molecule": "CNC(=O)[C@@H](C)Oc1ccc2cc(-c3nc4cc(C(=O)N5CCC[C@@H](N)C5)cc(OC)n4c3C)n(CC3CC3)c2n1", "note": "[Example 618]", "IC50": 401},
      {"molecule": "COc1cc(C(=O)N2CCC[C@@H](N)C2)cc2nc(-c3cc4ccc(O[C@H](C)C(=O)N(C)C)nc4n3CC3CC3)c(C)n12", "note": "[Example 619, (2~{R})-2-[2-[7-[(3~{R})-3-aminopiperidine-1-carbonyl]-5-methoxy-3-methylimidazo [1,2-a]pyridin-2-yl]-1-(cyclopropylmethyl)pyrrolo [2,3-b]pyridin-6-yl]oxy-~{N},~{N}-dimethylpropanamide]", "IC50": 686},
      {"molecule": "COc1cc(C(=O)N2CCC[C@@H](N)C2)cc2nc(-c3cc4ccc(OCC(=O)N(C)C)nc4n3CC3CC3)c(C)n12", "note": "[Example 620, 2-[2-[7-[(3~{R})-3-aminopiperidine-1-carbonyl]-5-methoxy-3-methylimidazo[1,2-a]pyridin-2-yl]-1-(cyclopropylmethyl)pyrrolo[2,3-b]pyridin-6-yl] oxy-~{N},~{N}-dimethylacetamide]", "IC50": 1190},
      {"molecule": "COc1cc(C(=O)N2CCC[C@@H](N)C2)cc2nc(-c3cc4ccc(OCC(N)=O)nc4n3CC3CC3)c(C)n12", "note": "[Example 621, 2-[2-[7-[(3~{R})-3-aminopiperidine-1-carbonyl]-5-methoxy-3-methylimidazo[1,2-a]pyridin-2-yl]-1-(cyclopropylmethyl)pyrrolo [2,3-b]pyridin-6-yl]oxyacetamide]", "IC50": 1020},
      {"molecule": "CNC(=O)COc1ccc2cc(-c3nc4cc(C(=O)N5CCC[C@@H](N)C5)cc(OC)n4c3C)n(CC3CC3)c2n1", "note": "[Example 622, 2-[2-[7-[(3~{R})-3-aminopiperidine-1-carbonyl]-5-methoxy-3-methylimidazo[1,2-a]pyridin-2-yl]-1-(cyclopropylmethyl)pyrrolo [2,3-b]pyridin-6-yl] oxy-~{N}-methylacetamide]", "IC50": 894},
      {"molecule": "COc1cc(C(=O)N2CCC[C@@H](N)C2)cc2nc(-c3cc4ccc(OC5CCN(C)C5=O)nc4n3CC3CC3)c(C)n12", "note": "(some centres unmarked) [Example 623, 3-[2-[7-[(3~{R})-3-aminopiperidine-1-carbonyl]-5-methoxy-3-methylimidazo[1,2-a]pyridin-2-yl]-1-(cyclopropylmethyl)pyrrolo [2,3-b]pyridin-6-yl]oxy-1-methylpyrrolidin-2-one]", "IC50": 131},
      {"molecule": "COc1cc(C(=O)N2[C@H]3CC[C@@H]2[C@H](N)C3)cc2nc(-c3cc4ccc(OCC(=O)N(C)C)nc4n3CC3CC3)c(C)n12", "note": "[Example 624, 2-[2-[7-[(1~{R},2~{R}, 4~{S})-2-amino-7-azabicyclo[2.2.1]heptane-7-carbonyl]-5-methoxy-3-methylimidazo[1,2-a]pyridin-2-yl]-1-(cyclopropylmethyl)pyrrolo [2,3-b]pyridin-6-yl] oxy-~{N},~{N}-dimethylacetamide]", "IC50": 114},
      {"molecule": "COc1cc(C(=O)N2[C@H]3CC[C@@H]2[C@H](N)C3)cc2nc(-c3cc4ccc(OCc5ccccc5)nc4n3CC3CC3)c(C)n12", "note": "[Example 627, [(1~{R},2~{R},4~{S})-2-amino-7-azabicyclo [2.2.1]heptan-7-yl]-[2-[1-(cyclopropylmethyl)-6-phenylmethoxypyrrolo[2,3-b]pyridin-2-yl]-5-methoxy-3-methylimidazo[1,2-a]pyridin-7-yl]methanone]", "IC50": 3360},
      {"molecule": "COc1cc(C(=O)N2[C@H]3CC[C@@H]2[C@H](N)C3)cc2nc(-c3cc4ccc(Oc5ccccc5)nc4n3CC3CC3)c(C)n12", "note": "[Example 628, [(1~{R},2~{R},4~{S})-2-amino-7-azabicyclo [2.2.1]heptan-7-yl]-[2-[1-(cyclopropylmethyl)-6-phenoxypyrrolo[2,3-b]pyridin-2-yl]-5-methoxy-3-methylimidazo[1,2-a]pyridin-7-yl]methanone]", "IC50": 553},
      {"molecule": "COc1ccc2cc(-c3nc4cc(C(=O)N5CCC[C@@H](N)C5)cc(OC)n4c3C)n(CC3CC3)c2n1", "note": "[Example 629, [(3~{R})-3-aminopiperidin-1-yl]-[2-[1-(cyclopropylmethyl)-6-methoxypyrrolo[2,3-b]pyridin-2-yl]-5-methoxy-3-methylimidazo[1,2-a]pyridin-7-yl]methanone]", "IC50": 2270},
      {"molecule": "COc1cc(C(=O)N2CCC[C@@H](N)C2)cc2nc(-c3cc4ccc(O[C@@H](C)C(=O)NC56CC(F)(C5)C6)nc4n3CC3CC3)c(C)n12", "note": "[Example 631, (2~{S})-2-[2-[7-[(3~{R})-3-aminopiperidine-1-carbonyl]-5-methoxy-3-methylimidazo[1,2-a]pyridin-2-yl]-1-(cyclopropylmethyl)pyrrolo[2,3-b]pyridin-6-yl]oxy-~{N}-(3-fluoro-1-bicyclo[1.1.1]pentanyl)propanamide]", "IC50": 10000},
      {"molecule": "COc1cc(C(=O)N2C[C@H](N)[C@@H]3CC[C@H]2C3)cc2nc(-c3cc4ccc([C@@H](C)NC(=O)C56CC(C#N)(C5)C6)nc4n3CC3CC3)c(C3CC3)n12", "note": "[Example 632, N-((R)-1-(2-(7-((1S,4R,5R)-4-amino-2-azabicyclo[3.2.1]octane-2-carbonyl)-3-cyclopropyl-5-methoxyimidazo[1,2-a]pyridin-2-yl)-1-(cyclopropylmethyl)-1H-pyrrolo[2,3-b]pyridin-6-yl)ethyl)-3-cyanobicyclo [1.1.1]pentane-1-carboxamide]", "IC50": 140},
      {"molecule": "(2~{S})-2-[2-[7-[(3~{R})-3- aminopiperidine-1- carbonyl]-5-methoxy-3- methylimidazo[1,2- a]pyridin-2-yl]-1- (cyclopropylmethyl)pyrrolo [2,3-b]pyridin-6-yl] oxy-~{N}- methylpropanamide [Example 630]", "IC50": 9400},
      {"molecule": "[(1~{R},2~{R},4~{S})-2- amino-7- azabicyclo[2.2.1]heptane-7- carbonyl]- 5-methoxy-3-methylimidazo [1,2-a]pyridin-2-yl]-1- (cyclopropylmethyl)pyrrolo [2,3-b]pyridin-6-yl]ethyl]-3- hydroxybicyclo[1.1.1] pentane-1-carboxamide [Example 87]", "IC50": 28.6},
      {"molecule": "[(1~{R},2~{R},4~{S})-2- amino-7-azabicyclo [2.2.1]heptan-7-yl]-[2-[1- (cyclopropylmethyl)-6-(6- hydroxy-2-methylpyridin- 3-yl)pyrrolo[2,3-b] pyridin-2-yl]-5-methoxy-3- methylimidazo[1,2-a] pyridin-7-yl]methanone [Example 563]", "IC50": 106},
      {"molecule": "[(1~{R},2~{R},4~{S})-2- amino-7-azabicyclo [2.2.1]heptan-7-yl]-[2-[6- ethyl-1-[(1~{R},2~{R})-2- phenylcyclopropyl]methyl] pyrrolo[2,3-b] pyridin-2-yl]-5-methoxy-3- methylimidazo[1,2-a] pyridin-7-yl]methanone [Example 492]", "IC50": 2090},
      {"molecule": "~{N}-[2-[7-[(3~{S}, 4~{R})-3-amino-4- hydroxypiperidine-1- carbonyl]-3-ethyl- 5-methoxyimidazo[1,2- a]pyridin-2-yl]-1- (cyclopropylmethyl)pyrrolo [2,3-b]pyridin-6-yl]-~{N}- (difluoromethyl) methanesulfonamide [Example 400]", "IC50": 847},
      {"molecule": "~{N}-[(1~{R})-1-[2-[7- [(1~{R},2~{R},4~{S})-2- amino-7- azabicyclo[2.2.1]heptane-7- carbonyl]- 5-methoxy-3-methylimidazo [1,2-a]pyridin-2-yl]-1- (cyclopropylmethyl)pyrrolo [2,3-b]pyridin-6-yl]ethyl]- 3,3-dimethylcyclobutane-1- carboxamide [Example 71]", "IC50": 63.4},
      {"molecule": "~{N}-[(1~{R})-1-[2-[7- [(1~{R},2~{R},4~{S})-2- amino-7- azabicyclo[2.2.1]heptane- 7-carbonyl]-3-cyclopropyl- 5-methoxyimidazo [1,2-a]pyridin-2-yl]-1-(1- bicyclo[1.1.1] pentanylmethyl)pyrrolo [2,3-b]pyridin-6-yl]ethyl]- 3-fluorobicyclo[1.1.1] pentane-1-carboxamide [Example 487]", "IC50": 331},
      {"molecule": "~{N}-[(1~{R})-1-[2-[7- [(1~{R},2~{R},4~{S})- 2-amino-7-azabicyclo [2.2.1]heptane- 7-carbonyl]-5-methoxy- 3-methylimidazo [1,2-a]pyridin-2-yl]-1- (cyclopropylmethyl) pyrrolo[2,3-b]pyridin- 6-ylethyl]-2,2- dimethylcyclopropane- 1-carboxamide [Example 70]", "IC50": 63.2}
    ]},
    {"test_system": "models of chronic and acute inflammatory diseases", "assay": "not given", "details": "MRL/lpr lupus, hemorrhagic shock in rats, CLP sepsis, DSS-colitis, ApoE-/- arteriosclerosis, diabetic wound healing models; cited from earlier work", "values": [
      {"molecule": "NC(=O)[C@H](CCCN=C(N)CCl)NC(=O)c1ccccc1", "note": "[chloroamidine]", "clinical, inflammatory, histopathological and mechanical end points, NETosis, outcome": "reduction of clinical, inflammatory, histopathological and mechanical end points"},
      {"molecule": "YW3-56", "clinical, inflammatory, histopathological and mechanical end points, NETosis, outcome": "reduction of clinical, inflammatory, histopathological and mechanical end points"}
    ]}
  ]
}
